Source: patent US20240270741A1 (Cogent Biosciences, Inc., priority 2023, published 2024)

Biological target: FGFR2 (Homo sapiens, UniProt P21802)
Assay: FGFR wild type enzyme assay (HTRF KinEASE-TK), FGFR2
Settings: Enz FGFR2 (nM), FGFR2 wild type enzyme assay

Chain of FGFR2 (P21802 399-821 limits assumed): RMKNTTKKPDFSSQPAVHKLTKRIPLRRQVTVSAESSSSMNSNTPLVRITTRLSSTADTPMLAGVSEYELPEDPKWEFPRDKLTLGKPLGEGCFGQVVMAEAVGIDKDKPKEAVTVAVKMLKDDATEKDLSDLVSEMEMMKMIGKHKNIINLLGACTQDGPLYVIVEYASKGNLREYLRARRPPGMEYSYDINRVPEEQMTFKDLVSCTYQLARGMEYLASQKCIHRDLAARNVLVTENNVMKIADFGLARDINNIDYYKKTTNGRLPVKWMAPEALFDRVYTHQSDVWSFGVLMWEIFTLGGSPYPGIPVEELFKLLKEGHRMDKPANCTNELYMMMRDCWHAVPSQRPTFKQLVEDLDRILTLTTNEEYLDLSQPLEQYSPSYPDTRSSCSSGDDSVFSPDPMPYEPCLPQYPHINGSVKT

| SMILES | IC50 [nM] |
| --- | --- |
| N#Cc1cc(F)ccc1Sc1cc(-c2ccc(N3C[C@H](O)[C@@H](O)C3)nc2)cn2ncc(C#N)c12 [Example 611, 4-((2-cyano-4-fluorophenyl)thio)-6-(6-((3S,4S)-3,4-dihydroxypyrrolidin-1-yl)pyridin-3-yl)pyrazolo[1,5-a]pyridine-3-carbonitrile] | 3 |
| Cc1nc(Sc2cc(-c3cnn(C)c3)cn3ncc(C#N)c23)c(F)cc1F [Example 615, 4-((3,5-difluoro-6-methylpyridin-2-yl)thio)-6-(1-methyl-1H-pyrazol-4-yl)pyrazolo[1,5-a]pyridine-3-carbonitrile] | 2 |
| Cn1cc(-c2cc(Sc3ncccc3F)c3c(C#N)cnn3c2)c(N)n1 [Example 617, 6-(3-amino-1-methyl-1H-pyrazol-4-yl)-4-((3-fluoropyridin-2-yl)thio)pyrazolo[1,5-a]pyridine-3-carbonitrile] | 6 |
| N#Cc1cc(F)ccc1Sc1cc(-c2ccc(N3CC[C@H](O)C3)nc2)cn2ncc(C#N)c12 [Example 626, (S)-4-((2-cyano-4-fluorophenyl)thio)-6-(6-(3-hydroxypyrrolidin-1-yl)pyridin-3-yl)pyrazolo[1,5-a]pyridine-3-carbonitrile] | 1 |
| N#Cc1cc(F)ccc1Sc1cc(-c2ccc(N3CC[C@@H](O)C3)nc2)cn2ncc(C#N)c12 [Example 627, (R)-4-((2-cyano-4-fluorophenyl)thio)-6-(6-(3-hydroxypyrrolidin-1-yl)pyridin-3-yl)pyrazolo[1,5-a]pyridine-3-carbonitrile] | 2 |
| N#Cc1cc(F)ccc1Sc1cc(-c2ccc(N3C[C@@H](O)[C@@H](O)C3)nc2)cn2ncc(C#N)c12 [Example 628, 4-((2-cyano-4-fluorophenyl)thio)-6-(6-((3R,4S)-3,4-dihydroxypyrrolidin-1-yl)pyridin-3-yl)pyrazolo[1,5-a]pyridine-3-carbonitrile] | 1 |
| N#Cc1cc(F)ccc1Sc1cc(-c2ccc(N3C[C@@H](O)[C@H](O)C3)nc2)cn2ncc(C#N)c12 [Example 629, 4-((2-cyano-4-fluorophenyl)thio)-6-(6-((3R,4R)-3,4-dihydroxypyrrolidin-1-yl)pyridin-3-yl)pyrazolo[1,5-a]pyridine-3-carbonitrile] | 1.6 |
| CC(=O)N1CCC[C@H](n2cc(-c3cc(Sc4nc(C)c(F)cc4F)c4c(C#N)cnn4c3)cn2)C1 [Example 630, (S)-6-(1-(1-acetylpiperidin-3-yl)-1H-pyrazol-4-yl)-4-((3,5-difluoro-6-methylpyridin-2-yl)thio)pyrazolo[1,5-a]pyridine-3-carbonitrile] | 1 |
| Cc1nc(Sc2cc(-c3cnn([C@H]4CCCNC4)c3)cn3ncc(C#N)c23)c(F)cc1F [Example 631, (S)-4-((3,5-difluoro-6-methylpyridin-2-yl)thio)-6-(1-(piperidin-3-yl)-1H-pyrazol-4-yl)pyrazolo[1,5-a]pyridine-3-carbonitrile] | 1 |
| Cc1c(-c2cc(Sc3ccc(F)cc3C#N)c3c(C#N)cnn3c2)cnn1[C@@H]1CCCC[C@H]1O [Example 632, 4-((2-cyano-4-fluorophenyl)thio)-6-(1-((1R,2R)-2-hydroxycyclohexyl)-5-methyl-1H-pyrazol-4-yl)pyrazolo[1,5-a]pyridine-3-carbonitrile] | 32 |
| Cc1c(-c2cc(Sc3ccc(F)cc3C#N)c3c(C#N)cnn3c2)cnn1[C@H]1CCCC[C@@H]1O [Example 633, 4-((2-cyano-4-fluorophenyl)thio)-6-(1-((2S,2S)-2-hydroxycyclohexyl)-5-methyl-1H-pyrazol-4-yl)pyrazolo[1,5-a]pyridine-3-carbonitrile] | 1 |
| Cc1c(-c2cc(Sc3ccc(F)cc3C#N)c3c(C#N)cnn3c2)cnn1[C@H]1CC[C@H](OC(=O)[C@H](C)N)CC1 [Example 634, (1r,4S)-4-(4-(3-cyano-4-((2-cyano-4 fluorophenyl)thio)pyrazolo [1,5-a]pyridin-6-yl)-5-methyl-1H-pyrazol-1-yl)cyclohexyl L-alaninate] | 1 |
| Cc1c(-c2cc(Sc3ccc(F)cc3C#N)c3c(C#N)cnn3c2)cnn1[C@H]1CC[C@H](OC(=O)[C@H](N)C(C)C)CC1 [Example 635, (1r,4R)-4-(4-(3-cyano-4-((2-cyano-4-fluorophenyl)thio)pyrazolo [1,5-a]pyridin-6-yl)-5-methyl-1H-pyrazol-1-yl)cyclohexyl D-valinate] | 1 |
| Cc1c(-c2cc(Sc3ccc(F)cc3C#N)c3c(C#N)cnn3c2)cnn1[C@H]1CC[C@H](OC(=O)CN)CC1 [Example 636, (1r,4r)-4-(4-(3-cyano-4-((2-cyano-4-fluorophenyl)thio)pyrazolo [1,5-a]pyridin-6-yl)-5-methyl-1H-pyrazol-1-yl)cyclohexyl glycinate] | 1 |

Second part, the compound after the results:

| IC50 [nM] | SMILES |
| --- | --- |
| 2 | CN1CCN(c2ccc(-c3cc(Sc4ccc(F)cc4C#N)c4c(C#N)cnn4c3)cn2)CC1=O [Example 610, 4-((2-cyano-4-fluorophenyl)thio)-6-(6-(4-methyl-3-oxopiperazin-1-yl)pyridin-3-yl)pyrazolo[1,5-a]pyridine-3-carbonitrile] |
| 2 | CN(C)c1ccc(-c2cc(Sc3ccc(F)cc3C#N)c3c(C#N)cnn3c2)cn1 [Example 612, 4-((2-cyano-4-fluorophenyl)thio)-6-(6-(dimethylamino)pyridin-3-yl)pyrazolo[1,5-a]pyridine-3-carbonitrile] |
| 1 | N#Cc1ccccc1Sc1cc(-c2cnn(CC(F)F)c2)cn2ncc(C#N)c12 [Example 613, 4-((2-cyanophenyl)thio)-6-(1-(2,2-difluoroethyl)-1H-pyrazol-4-yl)pyrazolo[1,5-a]pyridine-3-carbonitrile] |
| 9 | Cc1c(-c2cc(Sc3ccccc3C#N)c3c(C#N)cnn3c2)cnn1C [Example 614, 4-((2-cyanophenyl)thio)-6-(1,5-dimethyl-1H-pyrazol-4-yl)pyrazolo[1,5-a]pyridine-3-carbonitrile] |
| 6 | Cn1cc(-c2cc(Sc3ccccn3)c3c(C#N)cnn3c2)cn1 [Example 616, 6-(1-methyl-1H-pyrazol-4-yl)-4-(pyridin-2-ylthio)pyrazolo[1,5-a]pyridine-3-carbonitrile] |
| 0.4 | CN1CC[C@@H](n2cc(-c3cc(Sc4ccccc4C#N)c4c(C#N)cnn4c3)cn2)CC1=O [Example 618, (R)-4-((2-cyanophenyl)thio)-6-(1-(1-methyl-2-oxopiperidin-4-yl)-1H-pyrazol-4-yl)pyrazolo[1,5-a]pyridine-3-carbonitrile] |
| 2 | CN1CC[C@H](n2cc(-c3cc(Sc4ccccc4C#N)c4c(C#N)cnn4c3)cn2)CC1=O [Example 619, (S)-4-((2-cyanophenyl)thio)-6-(1-(1-methyl-2-oxopiperidin-4-yl)-1H-pyrazol-4-yl)pyrazolo[1,5-a]pyridine-3-carbonitrile] |
| 0.3 | CC1(C)C[C@H](n2cc(-c3cc(Sc4ccccc4C#N)c4c(C#N)cnn4c3)cn2)CCN1 [Example 620, (R)-4-((2-cyanophenyl)thio)-6-(1-(2,2-dimethylpiperidin-4-yl)-1H-pyrazol-4-yl)pyrazolo[1,5-a]pyridine-3-carbonitrile] |
| 0.3 | CC1(C)C[C@@H](n2cc(-c3cc(Sc4ccccc4C#N)c4c(C#N)cnn4c3)cn2)CCN1 [Example 621, (S)-4-((2-cyanophenyl)thio)-6-(1-(2,2-dimethylpiperidin-4-yl)-1H-pyrazol-4-yl)pyrazolo[1,5-a]pyridine-3-carbonitrile] |
| 0.5 | N#Cc1ccccc1Sc1cc(-c2cnn([C@@H]3CCC(=O)NC3)c2)cn2ncc(C#N)c12 [Example 622, (R)-4-((2-cyanophenyl)thio)-6-(1-(6-oxopiperidin-3-yl)-1H-pyrazol-4-yl)pyrazolo[1,5-a]pyridine-3-carbonitrile] |
| 1 | N#Cc1ccccc1Sc1cc(-c2cnn([C@H]3CCC(=O)NC3)c2)cn2ncc(C#N)c12 [Example 623, (S)-4-((2-cyanophenyl)thio)-6-(1-(6-oxopiperidin-3-yl)-1H-pyrazol-4-yl)pyrazolo[1,5-a]pyridine-3-carbonitrile] |
| 1 | N#Cc1ccccc1Sc1cc(-c2cnn(C3CCC3)c2)cn2ncc(C#N)c12 [Example 624, 4-((2-cyanophenyl)thio)-6-(1-cyclobutyl-1H-pyrazol-4-yl)pyrazolo[1,5-a]pyridine-3-carbonitrile] |
| 1 | N#Cc1ccccc1Sc1cc(-c2cnn([C@H]3CCCNC3)c2F)cn2ncc(C#N)c12 [Example 625, (S)-4-((2-cyanophenyl)thio)-6-(5-fluoro-1-(piperidin-3-yl)-1H-pyrazol-4-yl)pyrazolo[1,5-a]pyridine-3-carbonitrile] |
| 12 | N#Cc1ccccc1Sc1cc(-c2c[nH]nn2)cn2ncc(C#N)c12 [Example 637, 4-((2-cyanophenyl)thio)-6-(1H-1,2,3-triazol-4-yl)pyrazolo[1,5-a]pyridine-3-carbonitrile] |
| 18 | Cn1cc(-c2cc(Sc3ccccc3C#N)c3c(C#N)cnn3c2)ccc1=O [Example 638, 4-((2-cyanophenyl)thio)-6-(1-methyl-6-oxo-1,6-dihydropyridin-3-yl)pyrazolo[1,5-a]pyridine-3-carbonitrile] |
| 1.5 | CN(CCO)c1ccc(-c2cc(Sc3ccc(F)cc3C#N)c3c(C#N)cnn3c2)cn1 [Example 639, 4-((2-cyano-4-fluorophenyl)thio)-6-(6-((2-hydroxyethyl)(methyl)ami-no)pyridin-3-yl)pyrazolo[1,5-a]pyridine-3-carbonitrile] |
| 2.5 | N#Cc1cc(F)ccc1Sc1cc(-c2ccc(NCCO)nc2)cn2ncc(C#N)c12 [Example 640, 4-((2-cyano-4-fluorophenyl)thio)-6-(6-((2-hydroxyethyl)amino)pyridin-3-yl)pyrazolo[1,5-a]pyridine-3-carbonitrile] |
| 1 | [2H]C([2H])([2H])n1cc(-c2cc(Sc3ccccc3C#N)c3c(C#N)cnn3c2)cn1 [Example 641, 4-((2-cyanophenyl)thio)-6-(1-(methyl-d3)-1H-pyrazol-4-yl)pyrazolo[1,5-a]pyridine-3-carbonitrile] |
| 2 | Cn1cc(-c2cc(Sc3ccccc3C#N)c3c(C#N)cnn3c2)c(N)n1 [Example 642, 6-(3-amino-1-methyl-1H-pyrazol-4-yl)-4-((2-cyanophenyl)thio)pyrazolo [1,5-a]pyridine-3-carbonitrile] |
